Test results: patent US6492374B2, “Benzofuran derivatives, their preparation and use” (H. Lundbeck A/S, priority 1998, dated 2002)
Where two headings read alike, the source gives them in different places.

What was measured:
[1] = target: T1, cloned human 5-HT1A receptors (Homo sapiens, UniProt P08908); test: Inhibition of 3H-5-CT binding to human 5-HT1A receptors
T1 construct: expressed in transfected cells; host or cells: HeLa cells (HA7), stably transfected; cell homogenate
T1 sequence (P08908 1-422): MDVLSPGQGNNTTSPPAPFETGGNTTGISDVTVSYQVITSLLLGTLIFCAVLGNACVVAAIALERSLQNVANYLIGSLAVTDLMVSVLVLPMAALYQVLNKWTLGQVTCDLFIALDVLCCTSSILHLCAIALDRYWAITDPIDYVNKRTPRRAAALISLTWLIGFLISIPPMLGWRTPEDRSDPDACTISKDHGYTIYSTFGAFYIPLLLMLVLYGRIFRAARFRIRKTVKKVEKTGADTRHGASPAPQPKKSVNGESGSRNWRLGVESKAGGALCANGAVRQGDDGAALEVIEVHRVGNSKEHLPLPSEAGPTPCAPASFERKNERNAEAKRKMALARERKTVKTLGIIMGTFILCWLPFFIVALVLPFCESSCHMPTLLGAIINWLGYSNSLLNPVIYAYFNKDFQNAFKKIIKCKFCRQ
Method: Inhibition of ^3H-5CT Binding to Human 5-HT1A Receptors
Human 5-HT1A receptors (40 μg of cell homogenate) were incubated for 15 minutes at 37° C. in 50 mM Tris buffer at pH 7.7 in the presence of ^3H-5-CT. Non-specific binding was determined by including 10 μM of metergoline. The reaction was terminated by rapid filtration through Unifilter GF/B filters on a Tomtec Cell Harvester. Filters were counted in a Packard Top Counter.

[2] = system: serotonin reuptake (3H-5-HT uptake into whole rat brain synaptosomes); test: Inhibition of 3H-5-HT uptake into rat brain synaptosomes; type: biochemical
Method: Inhibition of ^3H-5HT Uptake Into Rat Brain Synaptosomes
Using this method, the ability of drugs to inhibit the accumulation of ^3H-5-HT into whole rat brain synaptosomes is determined in vitro.

[3] = cloned human 5-HT1A receptors expressed in HeLa cells (HA7)

Row | Structure (SMILES) | IC50 [1, 3] [nM] | IC50 [2] [nM] | Inhibition of serotonin reuptake % inhibition at 100 nM [2] [% inh. at 100 nM] | IC50 [1] [nM]
1 | COc1ccccc1N1CCN(CCCC2(c3ccc(F)cc3)OCc3cc(C#N)ccc32)CC1 (stereo not shown) [Compound 2a, 1-(4-Fluorophenyl)-1-[3-[4-(2-methoxyphenyl)piperazinyl]propyl]-1,3-dihydroisobenzofuran-5-carbonitrile] | 1 | – | – | –
2 | COc1ccccc1OCCN(C)CCCC1(c2ccc(F)cc2)OCc2cc(C#N)ccc21 (stereo not shown) [Compound 2b, 1-(4-Fluorophenyl)-1-[3-[[2-(2-methoxyphenoxy)ethyl]methylamino]propyl]-1,3-dihydroisobenzofuran-5-carbonitrile] | 6.4 | 40 | – | –
3 | CN(CCCCc1c[nH]c2ccccc12)CCCC1(c2ccccc2)OCc2ccccc21 (stereo not shown) [Compound 2e, 1-[3-[[4-(1H-Indol-3-yl)butyl]methylamino]propyl]1-phenyl-1,3-dihydroisobenzofuran] | 38 | 15 | – | –
4 | CN(CCCc1c[nH]c2ccccc12)CCC[C@@]1(c2ccc(F)cc2)OCc2cc(C#N)ccc21 [Compound 2f, (S)-1-[3-[[3-(1H-Indol-3-yl)propyl]methylamino]propyl]-1-(4-fluorophenyl)-1,3-dihydroisobenzofuran-5-carbonitrile] | 8.6 | 14 | – | –
5 | CN(CCCc1c[nH]c2ccccc12)CCCC1(c2ccccc2)OCc2ccccc21 (stereo not shown) [Compound 2g, 1-[3-[[3-(1H-Indol-3-yl)propyl]methylamino]propyl]-1-phenyl-1,3-dihydroisobenzofuran] | 40 | 20 | – | –
6 | CN(CCCc1cccc2c1OCCO2)CCCC1(c2ccc(F)cc2)OCc2ccccc21 (stereo not shown) [Compound 2j, 5-[3-[[3-[1-(4-Fluorophenyl)-1,3-dihydroisobenzofuran-1-yl]propyl]methylamino]propyl]-1,4benzodioxane] | 41 | 9.7 | – | –
7 | N#Cc1ccc2c(c1)COC2(CCCN1CCN(c2cccc3[nH]ccc23)CC1)c1ccc(F)cc1 (stereo not shown) [Compound 2m, 1-[3-[4-(1H-Indol-4-yl)piperazinyl]propyl]-1-(4fluorophenyl)-1,3-dihydroisobenzofuran-5carbonitrile] | 4.7 | – | – | –
8 | N#Cc1ccc2c(c1)COC2(CCCN1CCN(c2ccc3[nH]ccc3c2)CC1)c1ccc(F)cc1 (stereo not shown) [Compound 2n, 1-[3-[4-(1H-Indol-5-yl)piperazinyl]propyl]-1-(4-fluorophenyl)-1,3-dihydroisobenzofuran-5-carbonitrile] | 15 | – | – | –
9 | N#Cc1ccc2c(c1)COC2(CCCN1CCC(c2c[nH]c3cc(Cl)ccc23)CC1)c1ccc(F)cc1 (stereo not shown) [Compound 2o, 1-[3-[4-(6-chloro-1H-Indol-3-yl)piperidinyl]propyl]-1-(4fluorophenyl)-1,3-dihydroisobenzofuran-5-carbonitrile] | 12 | – | – | –
10 | CN(CCCC1(c2ccc(F)cc2)OCc2cc(C#N)ccc21)CCc1c[nH]c2ccccc12 (stereo not shown) [Compound 4a, 1-[3-[[2-(1H-Indol-3-yl)ethyl]methylamino]propyl]-1-(4-fluorophenyl)-1,3-dihydroisobenzofuran-5-carbonitrile] | 23 | 54 | – | –
11 | COc1cccc(CCN(C)CCCC2(c3ccc(F)cc3)OCc3cc(C#N)ccc32)c1 (stereo not shown) [Compound 4b, 1-(4-Fluorophenyl)-1-[3-[[2-(3-methoxyphenyl)ethyl]methylamino]propyl]-1,3-dihydroisobenzofuran-5-carbonitrile] | 63 | – | 59 | –
12 | C=CCN(CCCC1(c2ccc(F)cc2)OCc2cc(C#N)ccc21)CCc1cccc(OC)c1 (stereo not shown) [Compound 4c, 1-(4-Fluorophenyl)-1-[3-[[2-(3-methoxyphenyl)ethyl](prop-2-en-1-yl)amino]propyl]-1,3-dihydroisobenzofuran-5-carbonitrile] | 11 | – | 4 | –
13 | C=CCN(CCCC1(c2ccc(F)cc2)OCc2cc(C#N)ccc21)CCc1ccccc1OC (stereo not shown) [Compound 4d, 1-(4-Fluorophenyl)-1-[3-[[2-(2-methoxyphenyl)ethyl](prop-2-en-1-yl)amino]propyl]-1,3-dihydroisobenzofuran-5-carbonitrile] | 4.5 | – | 7 | –
14 | COc1ccc(OC)c(CCN(C)CCCC2(c3ccc(F)cc3)OCc3cc(C#N)ccc32)c1 (stereo not shown) [Compound 4e, 1-[3-[[2-(2,5-Dimethoxyphenyl)ethyl]methylamino]propyl]-1-(4-fluorophenyl)-1,3-dihydroisobenzofuran-5-carbonitrile] | – | 160 | – | 17
15 | C=CCN(CCCC1(c2ccc(F)cc2)OCc2cc(C#N)ccc21)CCc1cc(OC)ccc1OC (stereo not shown) [Compound 4f, 1-[3-[[2-(2,5-Dimethoxyphenyl)ethyl](prop-2-en-1-yl)amino]propyl]-1-(4-fluorophenyl)-1,3-dihydroisobenzofuran-5-carbonitrile] | 1.6 | – | 4 | –
16 | CN(CCCC1(c2ccc(F)cc2)OCc2cc(C#N)ccc21)CCOc1ccccc1 (stereo not shown) [Compound 4g, 1-(4-Fluorophenyl)-1-[3-[[2-phenoxyethyl]methylamino]propyl]-1,3-dihydroisobenzofuran-5carbonitrile] | 18 | – | 28 | –
17 | C=CCN(CCCc1cccc(OC)c1)CCCC1(c2ccc(F)cc2)OCc2cc(C#N)ccc21 (stereo not shown) [Compound 4l] | – | – | 27 | –
18 | COc1ccccc1OCCCN(C)CCCC1(c2ccc(F)cc2)OCc2cc(C#N)ccc21 (stereo not shown) [Compound 4m] | – | – | 74 | –
19 | C#CCN(CCCc1c[nH]c2ccccc12)CCCC1(c2ccc(F)cc2)OCc2cc(C#N)ccc21 (stereo not shown) [Compound 4u, 1-[3-[[3-(1H-Indol-3-yl)propyl](prop-2-yl-1-yl)amino]propyl]-1-(4-fluorophenyl)-1,3-dihydroisobenzofuran-5-carbonitrile] | – | – | 44 | –
20 | CN(CCCC1(c2ccc(F)cc2)OCc2cc(C#N)ccc21)CCc1c[nH]c2c(F)cccc12 (stereo not shown) [Compound 12b, 1-[3-[[2-(7-Fluoro-1H-indol-3-yl)ethyl]methylamino]propyl]-1-(4-fluorophenyl)-1,3-dihydroisobenzofuran-5-carbonitrile] | – | – | – | 43
21 | C=CCN(CCCc1c[nH]c2ccc(Cl)cc12)CCCC1(c2ccc(F)cc2)OCc2cc(C#N)ccc21 (stereo not shown) [Compound 13k, 1-[3-[[3-(5-Chloro-1H-indol-3-yl)propyl](prop-2-en-1-yl)amino]propyl]-1-(4-fluorophenyl)-1,3-dihydroisobenzofuran-5-carbonitrile] | 19 | – | – | –
22 | N#Cc1ccc2c(c1)COC2(CCCN(CCCc1c[nH]c2ccccc12)CCOc1ccccc1)c1ccc(F)cc1 (stereo not shown) [Compound 13p, 1-[3-[[3-(1H-Indol-3-yl)propyl](2-phenoxyethyl)amino]propyl]-1-(4-fluorophenyl)-1,3-dihydroisobenzofuran-5-carbonitrile] | 23 | – | – | –
23 | Cc1ccc2[nH]cc(CCN(CCCC3(c4ccc(F)cc4)OCc4cc(C#N)ccc43)CCOc3ccccc3)c2c1 (stereo not shown) [Compound 13q, 1-[3-[[2-(5-Methyl-1H-indol-3-yl)ethyl](2-phenoxyethyl)amino]propyl]-1-(4-fluorophenyl)-1,3dihydroisobenzofuran-5-carbonitrile] | 12 | – | – | –
24 | N#Cc1ccc2c(c1)COC2(CCCN(CCOc1ccccc1)CCc1c[nH]c2ccc(F)cc12)c1ccc(F)cc1 (stereo not shown) [Compound 13r, 1-[3-[[2-(5-Fluoro-1H-indol-3-yl)ethyl](2-phenoxyethyl)amino]propyl]-1-(4-fluorophenyl)-1,3-dihydroisobenzofuran-5-carbonitrile] | 8.9 | – | – | –
25 | Cc1ccc2[nH]cc(CCCN(CCCC3(c4ccc(F)cc4)OCc4cc(C#N)ccc43)CCOc3ccccc3)c2c1 (stereo not shown) [Compound 13t, 1-[3-[[3-(5-Methyl-1H-indol-3-yl)propyl](2-phenoxyethyl)amino]propyl]-1-(4-fluorophenyl)-1,3-dihydroisobenzofuran-5-carbonitrile] | 23 | – | – | –
26 | N#Cc1ccc2c(c1)COC2(CCCN(CCCc1c[nH]c2ccc(F)cc12)CCOc1ccccc1)c1ccc(F)cc1 (stereo not shown) [Compound 13u, 1-[3-[[3-(5-Fluoro-1H-indol-3-yl)propyl](2-phenoxyethyl)amino]propyl]-1-(4-fluorophenyl)-1,3-dihydroisobenzofuran-5-carbonitrile] | 22 | – | – | –
27 | N#Cc1ccc2c(c1)COC2(CCCN(CCOc1ccccc1)CCc1c[nH]c2c(F)cc(F)cc12)c1ccc(F)cc1 (stereo not shown) [Compound 13v, 1-[3-[[2-(5,7-Difluoro-1H-indol-3-yl)ethyl](2-phenoxyethyl)amino]propyl]-1-(4-fluorophenyl)-1,3-dihydroisobenzofuran-5-carbonitrile] | 23 | – | – | –
28 | CC(C)c1ccc2[nH]cc(CCN(CCCC3(c4ccc(F)cc4)OCc4cc(C#N)ccc43)CCOc3ccccc3)c2c1 (stereo not shown) [Compound 13x, 1-[3-[(2-Phenoxyethyl)[2-[5-(2-propyl)-1H-indol-3-yl]ethyl]amino]propyl]-1-(4-fluorophenyl)-1,3-dihydroisobenzofuran-5-carbonitrile] | 26 | – | – | –
